# Measurements reported in ChEMBL document CHEMBL1687752, “Impact of antifungal prophylaxis on colonization and azole susceptibility of Candida species” (2009).
# Assays:
# Assay type in all cases: functional
# Nakaseomyces glabratus [1] = assay: Antifungal activity against Candida glabrata isolated from HSCT recipients with acute or chronic GVHD prior to initiation of posaconazole therapy by broth microdilution method
# Pichia kudriavzevii [2] = assay: Antifungal activity against Candida krusei isolated from neutropenic subjects with AML or MDS prior to initiation of posaconazole therapy assessed as maximum MIC by broth microdilution method
# Candida albicans [3] = assay: Antifungal activity against Candida albicans isolated from neutropenic subjects with AML or MDS receiving fluconazole assessed as maximum MIC by broth microdilution method
# Nakaseomyces glabratus [4] = assay: Antifungal activity against 19 days cultured Candida glabrata isolated from HSCT recipient with acute or chronic GVHD mouth after 17 days of prophylaxis by broth microdilution method
# Nakaseomyces glabratus [5] = assay: Antifungal activity against 176 days cultured Candida glabrata isolated from HSCT recipient with acute or chronic GVHD mouth receiving antifungal therapy for 172 days after 114 days of prophylaxis by broth microdilution method
# Nakaseomyces glabratus [6] = assay: Antifungal activity against -2 days cultured Candida glabrata isolated from HSCT recipient with acute or chronic GVHD mouth receiving antifungal therapy for 168 days after 113 days of prophylaxis by broth microdilution method
# Nakaseomyces glabratus [7] = assay: Antifungal activity against Candida glabrata isolated from neutropenic subjects with AML or MDS prior to initiation of fluconazole therapy by broth microdilution method
# Nakaseomyces glabratus [8] = assay: Antifungal activity against 1 day cultured Candida glabrata isolated from HSCT recipient with acute or chronic GVHD mouth after 17 days of prophylaxis by broth microdilution method
# Nakaseomyces glabratus [9] = assay: Antifungal activity against 1 day cultured Candida glabrata isolated from neutropenic subject with AML or MDS stool receiving antifungal therapy for 25 days after 3 days of prophylaxis by broth microdilution method
# Nakaseomyces glabratus [10] = assay: Antifungal activity against -2 days cultured Candida glabrata isolated from HSCT recipient with acute or chronic GVHD mouth receiving antifungal therapy for 172 days after 114 days of prophylaxis by broth microdilution method
# Nakaseomyces glabratus [11] = assay: Antifungal activity against 43 days cultured Candida glabrata isolated from HSCT recipient with acute or chronic GVHD mouth receiving antifungal therapy for 168 days after 113 days of prophylaxis by broth microdilution method
# Nakaseomyces glabratus [12] = assay: Antifungal activity against Candida glabrata isolated from neutropenic subject 1102 with AML or MDS stool after 26 days prophylaxis by broth microdilution method; conditions: 624 h
# Pichia kudriavzevii [13] = assay: Antifungal activity against 6 days cultured Candida krusei isolated from neutropenic subject with AML or MDS pharynx receiving antifungal therapy for 19 days after 6 days of prophylaxis by broth microdilution method
# Candida tropicalis [14] = assay: Antifungal activity against -3 days cultured Candida tropicalis isolated from neutropenic subject with AML or MDS pharynx receiving antifungal therapy for 45 days after 24 days of prophylaxis by broth microdilution method
# Nakaseomyces glabratus [15] = assay: Antifungal activity against Candida glabrata isolated from HSCT recipient 474 with acute or chronic GVHD mouth after 124 days prophylaxis by broth microdilution method
# Nakaseomyces glabratus [16] = assay: Antifungal activity against 1 day cultured Candida glabrata isolated from HSCT recipient with acute or chronic GVHD mouth receiving antifungal therapy for 143 days after 116 days of prophylaxis by broth microdilution method
# Nakaseomyces glabratus [17] = assay: Antifungal activity against Candida glabrata isolated from neutropenic subjects with AML or MDS receiving fluconazole by broth microdilution method
# Saccharomyces cerevisiae = assay: Antifungal activity against Saccharomyces cerevisiae isolated from HSCT recipient 513 with acute or chronic GVHD mouth after 112 days prophylaxis by broth microdilution method
# Pichia kudriavzevii [18] = assay: Antifungal activity against Candida krusei isolated from HSCT recipients with acute or chronic GVHD receiving fluconazole assessed as maximum MIC by broth microdilution method
# Candida tropicalis [19] = assay: Antifungal activity against -3 days cultured Candida tropicalis isolated from neutropenic subject with AML or MDS stool receiving antifungal therapy for 45 days after 24 days of prophylaxis by broth microdilution method
# Nakaseomyces glabratus [20] = assay: Antifungal activity against 36 days cultured Candida glabrata isolated from neutropenic subject with AML or MDS pharynx after 48 days of prophylaxis by broth microdilution method
# Candida albicans [21] = assay: Antifungal activity against Candida albicans isolated from HSCT recipients with acute or chronic GVHD prior to initiation of posaconazole therapy by broth microdilution method
# Pichia kudriavzevii [22] = assay: Antifungal activity against Candida krusei isolated from neutropenic subjects with AML or MDS receiving fluconazole assessed as maximum MIC by broth microdilution method
# Candida albicans [23] = assay: Antifungal activity against Candida albicans isolated from HSCT recipients with acute or chronic GVHD prior to initiation of posaconazole therapy assessed as maximum MIC by broth microdilution method
# Pichia kudriavzevii [24] = assay: Antifungal activity against 6 days cultured Candida krusei isolated from neutropenic subject with AML or MDS stool receiving antifungal therapy for 19 days after 6 days of prophylaxis by broth microdilution method
# Nakaseomyces glabratus [25] = assay: Antifungal activity against Candida glabrata isolated from HSCT recipient 186 with acute or chronic GVHD mouth after 112 days prophylaxis by broth microdilution method
# Nakaseomyces glabratus [26] = assay: Antifungal activity against 35 days cultured Candida glabrata isolated from HSCT recipient with acute or chronic GVHD mouth receiving antifungal therapy for 165 days after 138 days of prophylaxis by broth microdilution method
# Candida albicans [27] = assay: Antifungal activity against Candida albicans isolated from neutropenic subjects with AML or MDS receiving fluconazole by broth microdilution method
# Nakaseomyces glabratus [28] = assay: Antifungal activity against Candida glabrata isolated from HSCT recipient 002 with acute or chronic GVHD mouth receiving antifungal drug after 116 days prophylaxis by broth microdilution method
# Pichia kudriavzevii [29] = assay: Antifungal activity against 8 days cultured Candida krusei isolated from neutropenic subject with AML or MDS pharynx after 12 days of prophylaxis by broth microdilution method
# Nakaseomyces glabratus [30] = assay: Antifungal activity against Candida glabrata isolated from HSCT recipients with acute or chronic GVHD prior to initiation of fluconazole therapy by broth microdilution method
# Nakaseomyces glabratus [31] = assay: Antifungal activity against Candida glabrata isolated from neutropenic subject 1187 with AML or MDS stool after 22 days prophylaxis by broth microdilution method; conditions: 528 h
# Candida albicans [32] = assay: Antifungal activity against Candida albicans isolated from HSCT recipient 031 with acute or chronic GVHD mouth receiving antifungal drug after 109 days prophylaxis by broth microdilution method
# Nakaseomyces glabratus [33] = assay: Antifungal activity against 62 days cultured Candida glabrata isolated from HSCT recipient with acute or chronic GVHD mouth receiving antifungal therapy for 143 days after 116 days of prophylaxis by broth microdilution method
# Nakaseomyces glabratus [34] = assay: Antifungal activity against Candida glabrata isolated from HSCT recipient 002 with acute or chronic GVHD mouth after 116 days prophylaxis by broth microdilution method
# Pichia kudriavzevii [35] = assay: Antifungal activity against 8 days cultured Candida krusei isolated from neutropenic subject with AML or MDS stool after 12 days of prophylaxis by broth microdilution method
# Candida albicans [36] = assay: Antifungal activity against Candida albicans isolated from HSCT recipient 462 with acute or chronic GVHD mouth after 112 days prophylaxis by broth microdilution method
# Nakaseomyces glabratus [37] = assay: Antifungal activity against Candida glabrata isolated from neutropenic subject 1102 with AML or MDS stool receiving antifungal drug after 26 days prophylaxis by broth microdilution method; conditions: 624 h
# Nakaseomyces glabratus [38] = assay: Antifungal activity against 23 days cultured Candida glabrata isolated from neutropenic subject with AML or MDS stool receiving antifungal therapy for 25 days after 3 days of prophylaxis by broth microdilution method
structure (smiles),measurement,setting,value
CC[C@@H]([C@H](C)O)n1ncn(-c2ccc(N3CCN(c4ccc(OC[C@@H]5CO[C@@](Cn6cncn6)(c6ccc(F)cc6F)C5)cc4)CC3)cc2)c1=O [POSACONAZOLE],MIC50,Nakaseomyces glabratus [1],0.5 µg/mL
same,MIC90,Nakaseomyces glabratus [1],4 µg/mL
same,MIC,Pichia kudriavzevii [2],0.25 µg/mL
same,MIC,Candida albicans [3],8 µg/mL
same,MIC,Nakaseomyces glabratus [4],8 µg/mL
same,MIC,Nakaseomyces glabratus [5],2 µg/mL
same,MIC,Nakaseomyces glabratus [6],1 µg/mL
same,MIC50,Nakaseomyces glabratus [7],0.5 µg/mL
same,MIC90,Nakaseomyces glabratus [7],2 µg/mL
same,MIC,Nakaseomyces glabratus [8],> 8 µg/mL
same,MIC,Nakaseomyces glabratus [9],4 µg/mL
same,MIC,Nakaseomyces glabratus [10],0.5 µg/mL
same,MIC,Nakaseomyces glabratus [11],2 µg/mL
same,MIC,Nakaseomyces glabratus [12],0.25 µg/mL
same,MIC,Pichia kudriavzevii [13],0.06 µg/mL
same,MIC,Candida tropicalis [14],< 0.015 µg/mL
same,MIC,Nakaseomyces glabratus [15],0.25 µg/mL
same,MIC,Nakaseomyces glabratus [16],0.5 µg/mL
same,MIC50,Nakaseomyces glabratus [17],0.5 µg/mL
same,MIC90,Nakaseomyces glabratus [17],1 µg/mL
same,MIC,Saccharomyces cerevisiae,1 µg/mL
same,MIC,Pichia kudriavzevii [18],1 µg/mL
same,MIC,Candida tropicalis [19],< 0.015 µg/mL
same,MIC,Nakaseomyces glabratus [20],1 µg/mL
same,MIC50,Candida albicans [21],0.016 µg/mL
same,MIC90,Candida albicans [21],0.06 µg/mL
same,MIC,Pichia kudriavzevii [22],0.25 µg/mL
same,MIC,Candida albicans [23],16 µg/mL
same,MIC,Pichia kudriavzevii [24],0.125 µg/mL
same,MIC,Nakaseomyces glabratus [25],0.25 µg/mL
same,MIC,Nakaseomyces glabratus [26],4 µg/mL
same,MIC50,Candida albicans [27],0.015 µg/mL
same,MIC90,Candida albicans [27],0.015 µg/mL
same,MIC,Nakaseomyces glabratus [28],4 µg/mL
same,MIC,Pichia kudriavzevii [29],0.125 µg/mL
same,MIC50,Nakaseomyces glabratus [30],1 µg/mL
same,MIC90,Nakaseomyces glabratus [30],8 µg/mL
same,MIC,Nakaseomyces glabratus [31],0.5 µg/mL
same,MIC,Candida albicans [32],< 0.015 µg/mL
same,MIC,Nakaseomyces glabratus [33],4 µg/mL
same,MIC,Nakaseomyces glabratus [34],0.5 µg/mL
same,MIC,Pichia kudriavzevii [35],0.125 µg/mL
same,MIC,Candida albicans [36],< 0.015 µg/mL
same,MIC,Nakaseomyces glabratus [37],> 8 µg/mL
same,MIC,Nakaseomyces glabratus [38],0.125 µg/mL
CCC(C)n1ncn(-c2ccc(N3CCN(c4ccc(OCC5COC(Cn6cncn6)(c6ccc(Cl)cc6Cl)O5)cc4)CC3)cc2)c1=O (stereo not given) [ITRACONAZOLE],MIC50,Nakaseomyces glabratus [1],1 µg/mL
same,MIC90,Nakaseomyces glabratus [1],8 µg/mL
same,MIC,Pichia kudriavzevii [2],0.5 µg/mL
same,MIC,Candida albicans [3],8 µg/mL
same,MIC,Nakaseomyces glabratus [4],> 8 µg/mL
same,MIC,Nakaseomyces glabratus [5],8 µg/mL
same,MIC,Nakaseomyces glabratus [6],1 µg/mL
same,MIC50,Nakaseomyces glabratus [7],0.5 µg/mL
same,MIC90,Nakaseomyces glabratus [7],2 µg/mL
same,MIC,Nakaseomyces glabratus [8],> 8 µg/mL
same,MIC,Nakaseomyces glabratus [9],8 µg/mL
same,MIC,Nakaseomyces glabratus [10],1 µg/mL
same,MIC,Nakaseomyces glabratus [11],2 µg/mL
same,MIC,Nakaseomyces glabratus [12],1 µg/mL
same,MIC,Pichia kudriavzevii [13],0.5 µg/mL
same,MIC,Candida tropicalis [14],0.03 µg/mL
same,MIC,Nakaseomyces glabratus [15],4 µg/mL
same,MIC,Nakaseomyces glabratus [16],1 µg/mL
same,MIC50,Nakaseomyces glabratus [17],0.5 µg/mL
same,MIC90,Nakaseomyces glabratus [17],2 µg/mL
same,MIC,Saccharomyces cerevisiae,0.5 µg/mL
same,MIC,Pichia kudriavzevii [18],16 µg/mL
same,MIC,Candida tropicalis [19],0.03 µg/mL
same,MIC,Nakaseomyces glabratus [20],1 µg/mL
same,MIC50,Candida albicans [21],0.03 µg/mL
same,MIC90,Candida albicans [21],0.06 µg/mL
same,MIC,Pichia kudriavzevii [22],1 µg/mL
same,MIC,Candida albicans [23],16 µg/mL
same,MIC,Pichia kudriavzevii [24],0.5 µg/mL
same,MIC,Nakaseomyces glabratus [25],0.5 µg/mL
same,MIC,Nakaseomyces glabratus [26],8 µg/mL
same,MIC50,Candida albicans [27],0.015 µg/mL
same,MIC90,Candida albicans [27],0.015 µg/mL
same,MIC,Nakaseomyces glabratus [28],> 8 µg/mL
same,MIC,Pichia kudriavzevii [29],0.25 µg/mL
same,MIC50,Nakaseomyces glabratus [30],2 µg/mL
same,MIC90,Nakaseomyces glabratus [30],16 µg/mL
same,MIC,Nakaseomyces glabratus [31],1 µg/mL
same,MIC,Candida albicans [32],0.06 µg/mL
same,MIC,Nakaseomyces glabratus [33],8 µg/mL
same,MIC,Nakaseomyces glabratus [34],1 µg/mL
same,MIC,Pichia kudriavzevii [35],0.25 µg/mL
same,MIC,Candida albicans [36],0.06 µg/mL
same,MIC,Nakaseomyces glabratus [37],> 8 µg/mL
same,MIC,Nakaseomyces glabratus [38],0.125 µg/mL
